{
  "source": "patent US11352358B2",
  "about": "“FXR agonist” (XUANZHU BIOPHARMACEUTICAL CO., LTD., priority 2017, dated 2022)",
  "key": {"[1]": {"assay": "Liver microsome metabolism stability, rat liver microsome", "assay_type": "in vitro ADME, SD rat", "settings": "0.5 mg protein/mL, test sample 1 μM, β-NADPH", "experimental": "Test samples: the homemade compounds 1, 2, 4 and 5 of the present invention (for their chemical names and preparation methods, see the preparation example for each compound).\na mixed liver microsomes of SD rat and human both purchased from XenoTech, with batch Nos.: 1410271 (SD rat) and 1410013 (human) respectively, wherein the microsomal protein concentrations both were 20 mg mL^−1;\nexperimental promoter β-NADPH purchased from Roche (batch No.: 524F0231); and a phosphate buffer solution (pH 7.4) made in the lab.\nAn appropriate amount of the test sample powder was weighed accurately, and dissolved in an appropriate amount of dimethyl sulfoxide (DMSO) to a concentration of 1 mM; and the solution was then diluted by 20 times with methanol to yield a 50 μM working solution.\n(1) According to the proportions in table 3 “Composition of the incubation system for liver microsome metabolism stability experiment” above, for each compound, 6 mL of PBS (100 mM), 0.6 mL of MgCl2 solution (20 mM) and 3.66 mL of H2O were made into a mixed solution 1 for the incubation system (not containing the microsomes, the test sample and β-NADPH).\n(2) Liver microsomes (20 mg protein/mL) were taken from a refrigerator (−80° C.), and were placed on a thermostatic water bath oscillator (37° C.) and pre-incubated for 3 mins.\n(3) For each compound, 1.88 mL of the mixed solution 1 for the incubation system was added with 55 μL of microsomes to obtain a mixed solution 2 for the incubation system (not containing the test sample and β-NADPH).\n(4) Sample group (containing the microsomes and D-NADPH): 616 μL of mixed solution 2 for the incubation system was added with 14 μL of the test sample working solution (with a concentration of 50 μM), and with 70 μL of R-NADPH working solution (10 mM). The resulted solution was well mixed, and the resulted solution was then duplicated. The time points of sampling were at 0 min, 5th min, 10th min, 20th min, 30th min and 60th min.\n(5) Control group (containing the microsomes, and water instead of D-NADPH): 264 μL of mixed solution 2 for the incubation system was added with 6 μL of the test sample working solution (50 μM), and with 30 μL of water. The resulted solution was well mixed, and the resulted solution was then duplicated. The time points of sampling were at 0 min and 60th min.\n(6) 50 μL of sample was taken from an incubating sample tube at each predetermined time point, added to a terminating sample tube (containing 300 μL of cold terminator), and vortexed; and the reaction was terminated.\n(7) after 10 mins of vortexing, the solution was centrifuged for 5 mins (12,000 rpm).\n(8) 100 μL of supernatant was taken and added with 100 μL of water, and the mixture solution was thoroughly vortexed; and the solution was then analyzed by LC-MS/MS.\nPercentages of residual contents were calculated according to the following formula."}, "[2]": {"tested_on": "high fat-induced NAFLD/NASH mice", "assay": "High fat-induced NAFLD/NASH mice (Experimental Example 5)", "assay_type": "in vivo, C57BL/6J male mice", "description": "Build of NAFLD/NASH (non-alcoholic fatty liver disease/nonalcoholic steatohepatitis) mouse models: six-week-old C57BL/6J male mice were fed with high-fat feed, and were weighed each week to record the body weights of the mice; and after high-fat feeding for 8 weeks, the mice were weighed to determine whether the modeling is successful.\nAccording to the body weight values (40 g was generally considered as a screening critical point), the successfully-modeled mice were divided into a blank control group, a model control group and the compound 2-1 (1 mg/kg) group, wherein the average body weights of all groups were consistent, without any significant difference. The mice were administered once every day (QD) (8 # intragastric syringe) for 3 weeks.\n24 hrs after the last administration, blood was sampled from the inner canthus; the sampled blood stood at room temperature for 1 to 2 hrs, and was centrifuged at 4,000 rpm for 15 mins, and the serum was collected; the mice were euthanized thereafter, and a large liver lobe and a small liver lobe were cut off and put into 10% neutral formalin, and the remainings were stored in a refrigerator at −80° C. For the detailed administration method, administration dosage and administration route, see the table below.\nRoute, dosage and regimen of administration in experiment for influence of compounds of the present invention on high fat-induced NAFLD/NASH mice\n2.1 Experimental Observation Index • 1) Body weight: Weighing was performed once every week from the beginning of modeling. Weighing was performed once every week after administration. • 2) Analysis of morphological and pathological changes of livers: Liver tissues were separated, collected and photographed. The livers were weighed, and ratios of liver weight/body weight were calculated. The tissue was sliced and stained by H&E (NAFLD score, NAS). • 3) Assay of biochemical indexes of livers: TG in the livers was extracted according to the manual of a tissue cell triglyceride assay kit (purchased from Applygen Technologies Inc. E1013), and assayed. • 4) Assay of biochemical indexes of serums: LDL in serums was assayed with a full-automatic biochemical analyzer (Hitachi 7180, model: X594).\nData were represented by mean±S.E.M., and one-way analysis of variance (ANOVA) followed LSD or independent-sample T test were performed on the statistical data with statistical software SPSS 16.0. Statistical differences were tested, and p<0.05 was defined as a significant difference."}},
  "note": "Marks after values point to notes of the source that are not given here.",
  "data": [
    {"smiles": "O=C(O)c1ccc2nc(N3C[C@@H]4C[C@H]3C[C@H]4OCc3c(-c4c(Cl)cccc4Cl)noc3C3CC3)sc2c1", "note": "[Compound 2-1, 2-((1S, 4S, 5R)-5-((5-cyclopropyl-3-(2,6-dichlorophenyl)isoxazol-4-yl)methoxy)-2-azabicyclo[2.2.1]heptan-2-yl)benzo[d]thiazole-6-carboxylic acid]", "values": [
      {"measurement": "Residual content (%) after 60 minutes of incubation", "setting": "[1]", "value": 77, "unit": "%"},
      {"measurement": "Liver Weight/Body Weight", "setting": "[2]; 1 mg/kg p.o. QD for 3 weeks, increased or decreased ratio of the experimental group to the model group", "value": "−9", "unit": "%*"},
      {"measurement": "NAFLD Activity Score", "setting": "[2]; H&E liver slices, 1 mg/kg p.o. QD for 3 weeks, model group 3, p<0.001", "value": 1},
      {"measurement": "effect on the NAFLD symptom of the mice", "setting": "[2]; at the administration dosage (1 mg/kg)", "value": "good improving effect"},
      {"measurement": "TG", "setting": "[2]; liver TG, 1 mg/kg p.o. QD for 3 weeks, increased or decreased ratio of the experimental group to the model group", "value": "−53", "unit": "%*"},
      {"measurement": "LDL", "setting": "[2]; serum, 1 mg/kg p.o. QD for 3 weeks, model group 0.31, p<0.01", "value": 0.21}
    ]}
  ]
}
